This note sets out measurements from patent publication US20020051821A1, “Aliginate particle formulation” (priority 2000, published 2002).

The series is classed as in vitro ADME. The conditions noted are these: human, topical or ocular, 3 mg. The procedure: For a composition performance test that more closely parallels eventual practical use, candidate particle compositions can be injected into dermatomed, full thickness human skin samples. Replicate skin samples after injection can be placed on modified Franz diffusion cells containing 32° C. water, physiologic saline or buffer. Additives such as surfactants may be used to prevent binding to diffusion cell components and to maintain sink conditions. Two kinds of measurements can be made to assess performance of the formulation in the skin.
To measure the formulation performance in vitro, the active (guest) component(s) of candidate compositions can be collected by complete or aliquot replacement of the Franz cell receiver solution at predetermined time intervals for chemical assay using HPLC or other suitable analytical technique. Concentration data can be used to generate a delivery profile and calculate a steady state permeation rate. This technique can be used to screen formulations for early indication of drug binding to skin, drug dissolution, efficiency of particle penetration of stratum corneum, etc., prior to in vivo studies.
Modified Franz cells (6.9 ml) were designed for investigation of transdermal flux (FIG. 1). […]

In the case of Alginate, the Bioavailability was found to be 63.8%.

The substance lysozyme [Neat lysozyme] showed a Bioavailability of 7.1%.
